{"source": "patent EP1650209A1", "about": "“Griseusin derivatives and their use as antitumor agents” (Oncotest GmbH, priority 2004, dated 2006)", "assay_in_all_cases": "Proliferation inhibition of cancer cells (propidium iodide fluorescence)", "assay_type_in_all_cases": "cell-based, human", "key": {"RXF 486L": {"tested_on": "RXF 486L", "details": "RXF 486L cell line", "protocol": "(§1) Using various human cancer cells in vitro, the concentrations of the test compounds (A, B, C, D, E, F), which inhibit the proliferation of cancer cells by 50% (IC50) and 70% (IC70) were determined. Specifically, each cell line of bladder cancer (BXF 1218L and T-24), glioblastoma (CNXF 498NL), colic cancer (HCT-116 and HT-29), gastric cancer (GXF 251 L), head and neck cancer (HNXF 536L), non small cell lung cancer (LXF 1121L, LXF 289L, LXF 526L, LXF 529L, LXF 629L and H-460), mammary cancer (MAXF 401NL, MCF-7, MDA-231 and MDA-468), melanoma (MEXF 276L, MEXF 394NL, MEXF 462NL, MEXF 514L and MEXF 520L), ovary cancer (OVXF 1619L, OVXF 899L and OVCAR-3), pancreatic cancer (PAXF 1657L and PANC-1), prostate cancer (22Rv1, DU-145, LNCaP and PC3M), pleuramesothelioma (PXF 1752L), renal cancer (RXF 1781 L, RXF 393NL, RXF 486L and RXF 944L), and uterine cancer (UXF 1138L) is added to a 96-well microtiter plate at a density of 3.6-11.2x10^3 cells per well in RPMI-1640 medium containing 10% fetal calf serum and 0.1% gentamicin and incubated for 24 hours. After 24 hours RPMI-1640 medium containing 10% fetal calf serum and 0.1% gentamicin, together with a test compound, is added thereto. Then, this plate is incubated at 37°C for 4 days in a humidified atmosphere of air containing 5% CO2. Thereafter, the cell culture medium with or without drug was replaced by 200 µl of an aqueous PI solution (7 µg/ml propidium iodide). Applying a freeze thaw cycle to permeabilize intact cell walls, staining of DNA was achieved, and the fluorescence of each well was measured using the Cy-tofluor 4000 microplate reader (excitation 530 nm, emission 620 nm), giving a direct relationship to the total cell number. Proliferation inhibition is expressed as test versus untreated control (T/C-value [%]). IC50 and IC70 values were determined by plotting compound concentration versus cell viability."}, "DU-145": {"tested_on": "DU-145", "details": "Prostate, DU-145 cell line", "protocol": "as §1"}, "OVXF 899L": {"tested_on": "OVXF 899L", "details": "Ovary, OVXF 899L cell line", "protocol": "as §1"}, "PC3M": {"tested_on": "PC3M", "details": "Prostate, PC3M cell line", "protocol": "as §1"}, "HT-29": {"tested_on": "HT-29", "details": "Colon, HT-29 cell line", "protocol": "as §1"}, "HNXF 536L": {"tested_on": "HNXF 536L", "details": "Head and Neck, HNXF 536L cell line", "protocol": "as §1"}, "MDA-468": {"tested_on": "MDA-468", "details": "Breast, MDA-468 cell line", "protocol": "as §1"}, "PANC-1": {"tested_on": "PANC-1", "details": "Pancreas, PANC-1 cell line", "protocol": "as §1"}, "T-24": {"tested_on": "T-24", "details": "Bladder, T-24 cell line", "protocol": "as §1"}, "H-460": {"tested_on": "H-460", "details": "Lung, non small cell, H-460 cell line", "protocol": "as §1"}, "MAXF 401NL": {"tested_on": "MAXF 401NL", "details": "MAXF 401NL cell line", "protocol": "as §1"}, "LXFA 1121 L": {"tested_on": "LXFA 1121 L", "details": "Lung, non small cell, LXFA 1121 L cell line", "protocol": "as §1"}, "MEXF 394NL": {"tested_on": "MEXF 394NL", "details": "Melanoma, MEXF 394NL cell line", "protocol": "as §1"}, "LXFA 289L": {"tested_on": "LXFA 289L", "details": "Lung, non small cell, LXFA 289L cell line", "protocol": "as §1"}, "RXF 944L": {"tested_on": "RXF 944L", "details": "Kidney, RXF 944L cell line", "protocol": "as §1"}, "HCT-116": {"tested_on": "HCT-116", "details": "Colon, HCT-116 cell line", "protocol": "as §1"}, "OVXF 1619L": {"tested_on": "OVXF 1619L", "details": "Ovary, OVXF 1619L cell line", "protocol": "as §1"}, "MEXF 520L": {"tested_on": "MEXF 520L", "details": "Melanoma, MEXF 520L cell line", "protocol": "as §1"}, "PXF 1752L": {"tested_on": "PXF 1752L", "details": "Pleuramesothelio, PXF 1752L cell line", "protocol": "as §1"}, "OVCAR-3": {"tested_on": "OVCAR-3", "details": "Ovary, OVCAR-3 cell line", "protocol": "as §1"}, "MDA-231": {"tested_on": "MDA-231", "details": "Breast, MDA-231 cell line", "protocol": "as §1"}, "BXF 1218L": {"tested_on": "BXF 1218L", "details": "Bladder, BXF 1218L cell line", "protocol": "as §1"}, "22Rv1": {"tested_on": "22Rv1", "details": "Prostate, 22Rv1 cell line", "protocol": "as §1"}, "GXF 251 L": {"tested_on": "GXF 251 L", "protocol": "as §1"}}, "data": [{"smiles": "C[C@@H]1CC(=O)[C@@H](O)[C@]2(O1)O[C@@H]1CC(=O)O[C@@H]1C1=C2C(=O)c2c(O)cccc2C1=O", "note": "[Compound B, 4'-dehydro-deacetylgriseusin A]", "values": [{"measurement": "IC50", "setting": "RXF 486L; Kidney", "result": 0.078, "unit": "µg/mL"}, {"measurement": "IC70", "setting": "RXF 486L; Kidney", "result": 0.142, "unit": "µg/mL"}, {"measurement": "IC50 value", "setting": "RXF 486L; 4 days", "result": 0.078, "unit": "µg/mL"}, {"measurement": "IC50", "setting": "DU-145", "result": 0.251, "unit": "µg/mL"}, {"measurement": "IC70", "setting": "DU-145", "result": 0.669, "unit": "µg/mL"}, {"measurement": "IC50", "setting": "OVXF 899L", "result": 1.265, "unit": "µg/mL"}, {"measurement": "IC70", "setting": "OVXF 899L", "result": 2.249, "unit": "µg/mL"}, {"measurement": "IC50", "setting": "PC3M", "result": 0.402, "unit": "µg/mL"}, {"measurement": "IC70", "setting": "PC3M", "result": 0.929, "unit": "µg/mL"}, {"measurement": "IC50", "setting": "HT-29", "result": 0.114, "unit": "µg/mL"}, {"measurement": "IC70", "setting": "HT-29", "result": 0.177, "unit": "µg/mL"}, {"measurement": "IC50", "setting": "HNXF 536L", "result": 0.237, "unit": "µg/mL"}, {"measurement": "IC70", "setting": "HNXF 536L", "result": 0.716, "unit": "µg/mL"}, {"measurement": "IC50", "setting": "MDA-468", "result": 0.060, "unit": "µg/mL"}, {"measurement": "IC70", "setting": "MDA-468", "result": 0.127, "unit": "µg/mL"}, {"measurement": "IC50", "setting": "PANC-1", "result": 0.117, "unit": "µg/mL"}, {"measurement": "IC70", "setting": "PANC-1", "result": 0.200, "unit": "µg/mL"}, {"measurement": "IC50", "setting": "T-24", "result": 0.507, "unit": "µg/mL"}, {"measurement": "IC70", "setting": "T-24", "result": 1.137, "unit": "µg/mL"}, {"measurement": "IC50", "setting": "H-460", "result": 0.490, "unit": "µg/mL"}, {"measurement": "IC70", "setting": "H-460", "result": 1.042, "unit": "µg/mL"}, {"measurement": "IC50", "setting": "MAXF 401NL; Breast", "result": 0.090, "unit": "µg/mL"}, {"measurement": "IC70", "setting": "MAXF 401NL; Breast", "result": 0.160, "unit": "µg/mL"}, {"measurement": "IC50 value", "setting": "MAXF 401NL; 4 days", "result": 0.09, "unit": "µg/mL"}, {"measurement": "IC50", "setting": "LXFA 1121 L", "result": 0.083, "unit": "µg/mL"}, {"measurement": "IC70", "setting": "LXFA 1121 L", "result": 0.147, "unit": "µg/mL"}, {"measurement": "IC50", "setting": "MEXF 394NL", "result": 0.035, "unit": "µg/mL"}, {"measurement": "IC70", "setting": "MEXF 394NL", "result": 0.086, "unit": "µg/mL"}, {"measurement": "IC50", "setting": "LXFA 289L", "result": 8.770, "unit": "µg/mL"}, {"measurement": "IC70", "setting": "LXFA 289L", "result": 14.801, "unit": "µg/mL"}, {"measurement": "IC50", "setting": "RXF 944L", "result": 0.038, "unit": "µg/mL"}, {"measurement": "IC70", "setting": "RXF 944L", "result": 0.107, "unit": "µg/mL"}, {"measurement": "IC50", "setting": "HCT-116", "result": 0.697, "unit": "µg/mL"}, {"measurement": "IC70", "setting": "HCT-116", "result": 1.333, "unit": "µg/mL"}, {"measurement": "IC50", "setting": "OVXF 1619L", "result": 0.242, "unit": "µg/mL"}, {"measurement": "IC70", "setting": "OVXF 1619L", "result": 0.916, "unit": "µg/mL"}, {"measurement": "IC50", "setting": "MEXF 520L", "result": 0.102, "unit": "µg/mL"}, {"measurement": "IC70", "setting": "MEXF 520L", "result": 0.175, "unit": "µg/mL"}, {"measurement": "IC50", "setting": "PXF 1752L", "result": 0.124, "unit": "µg/mL"}, {"measurement": "IC70", "setting": "PXF 1752L", "result": 0.208, "unit": "µg/mL"}, {"measurement": "IC50", "setting": "OVCAR-3", "result": 0.521, "unit": "µg/mL"}, {"measurement": "IC70", "setting": "OVCAR-3", "result": 1.309, "unit": "µg/mL"}, {"measurement": "IC50", "setting": "MDA-231", "result": 0.068, "unit": "µg/mL"}, {"measurement": "IC70", "setting": "MDA-231", "result": 0.136, "unit": "µg/mL"}, {"measurement": "IC50", "setting": "BXF 1218L", "result": 0.056, "unit": "µg/mL"}, {"measurement": "IC70", "setting": "BXF 1218L", "result": 0.133, "unit": "µg/mL"}, {"measurement": "IC50", "setting": "22Rv1", "result": 0.071, "unit": "µg/mL"}, {"measurement": "IC70", "setting": "22Rv1", "result": 0.139, "unit": "µg/mL"}, {"measurement": "IC50 value", "setting": "GXF 251 L; GXF 251L cell line, 4 days", "result": 0.106, "unit": "µg/mL"}, {"measurement": "IC50", "setting": "GXF 251 L; Stomach, GXF 251 L cell line", "result": 0.106, "unit": "µg/mL"}, {"measurement": "IC70", "setting": "GXF 251 L; Stomach, GXF 251 L cell line", "result": 0.178, "unit": "µg/mL"}]}]}
